# Reference: US6362369B1, “Phthalic acid diamide derivatives fluorine-containing aniline compounds as starting material, agricultural and horticultural insecticides, and a method for application of the insecticides” (Nihon Nohyaku Co., Ltd., priority 1997, dated 2002)
# Columns and labels:
# Type in all cases: in vivo
# [1] = system: diamondback moth (Plutella xylostella); assay: Insecticidal effect on diamondback moth (Test Example 1); conditions: diamondback moth; mortality judged by criterion of Test Example 1
# Procedure, shortened: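 Triplicate groups of 10 insects were scored: six days after immersion of oviposited Chinese cabbage seedlings and holding at 25 °C post air-drying, hatched larvae were counted. Mortality derived from these counts and insecticidal effect judged by a set criterion.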
# [2] = system: common cutworm (Spodoptera Litura); assay: Insecticidal effect on common cutworm (Test Example 2); conditions: common cutworm second-instar larvae; cabbage leaf immersed, 500 ppm; eight days after inoculation; 25° C.
# Procedure, shortened: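 Mortality was scored 8 days post-inoculation, using three groups of 10 second-instar larvae kept at 25 °C in closed 9 cm dishes on air-dried treated material. The insecticidal effect was graded from calculated mortality by a set criterion.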
# [3] = system: rice leafroller (Cnaphalocrocis medinalis); assay: Insecticidal effect on rice leafroller (Test Example 3); conditions: rice leafroller third-instar larvae; rice lamina immersed, 500 ppm; four days after inoculation; 25° C., humidity 70%
# Procedure, shortened: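 Insecticidal effect is judged by a predefined criterion from dead/alive counts four days after infesting air-dried lamina with third-instar larvae, kept on moistened filter paper at 25° C, 70% humidity.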
smiles,measurement,setting,value
CC(C)NC(=O)c1c(Cl)cccc1C(=O)Nc1ccc2c(c1)OC(F)(F)O2 [compound 1101],"Insecticidal effect, Test Example 1",[1],A (100)
same,"Insecticidal effect, Test Example 2",[2],C (89-80)
same,"Insecticidal effect, Test Example 3",[3],A (100)
CC(C)NC(=O)c1c(I)cccc1C(=O)Nc1ccc2c(c1)OC(F)(F)O2 [compound 1102],"Insecticidal effect, Test Example 1",[1],A (100)
same,"Insecticidal effect, Test Example 2",[2],A (100)
same,"Insecticidal effect, Test Example 3",[3],A (100)
CC(C)(C)NC(=O)c1c(Cl)cccc1C(=O)Nc1ccc2c(c1)OC(F)(F)O2 [compound 1104],"Insecticidal effect, Test Example 1",[1],A (100)
same,"Insecticidal effect, Test Example 2",[2],A (100)
same,"Insecticidal effect, Test Example 3",[3],A (100)
CC(C)(C)NC(=O)c1c(I)cccc1C(=O)Nc1ccc2c(c1)OC(F)(F)O2 [compound 1105],"Insecticidal effect, Test Example 1",[1],A (100)
same,"Insecticidal effect, Test Example 2",[2],A (100)
same,"Insecticidal effect, Test Example 3",[3],A (100)
CC(C)NC(=O)c1c(Cl)cccc1C(=O)Nc1ccc(SC(F)(F)Br)cc1 [compound 1110],"Insecticidal effect, Test Example 1",[1],A (100)
same,"Insecticidal effect, Test Example 2",[2],C (89-80)
same,"Insecticidal effect, Test Example 3",[3],A (100)
CC(C)NC(=O)c1c(I)cccc1C(=O)Nc1ccc(SC(F)(F)Br)cc1 [compound 1112],"Insecticidal effect, Test Example 1",[1],A (100)
same,"Insecticidal effect, Test Example 2",[2],A (100)
same,"Insecticidal effect, Test Example 3",[3],A (100)
CC(C)NC(=O)c1c(I)cccc1C(=O)Nc1ccc([S+]([O-])C(F)(F)Br)cc1 (stereo not drawn) [compound 1113],"Insecticidal effect, Test Example 1",[1],A (100)
same,"Insecticidal effect, Test Example 2",[2],A (100)
same,"Insecticidal effect, Test Example 3",[3],A (100)
CC(C)(C)NC(=O)c1c(Cl)cccc1C(=O)Nc1ccc(SC(F)(F)Br)cc1 [compound 1114],"Insecticidal effect, Test Example 1",[1],A (100)
same,"Insecticidal effect, Test Example 2",[2],A (100)
same,"Insecticidal effect, Test Example 3",[3],A (100)
CC(C)(C)NC(=O)c1c(I)cccc1C(=O)Nc1ccc(SC(F)(F)Br)cc1 [compound 1115],"Insecticidal effect, Test Example 1",[1],A (100)
same,"Insecticidal effect, Test Example 2",[2],A (100)
same,"Insecticidal effect, Test Example 3",[3],A (100)
Cc1cc(C(F)(F)C(F)(F)F)ccc1NC(=O)c1cccc(I)c1C(=O)N1CCCCCC1 [compound 1117],"Insecticidal effect, Test Example 1",[1],A (100)
same,"Insecticidal effect, Test Example 2",[2],A (100)
same,"Insecticidal effect, Test Example 3",[3],A (100)
CCN(CC)C(=O)c1c(C(=O)Nc2ccc(OC(F)(F)F)cc2C)cccc1[N+](=O)[O-] [compound 1118],"Insecticidal effect, Test Example 1",[1],A (100)
same,"Insecticidal effect, Test Example 2",[2],A (100)
same,"Insecticidal effect, Test Example 3",[3],A (100)
CCN(CC)C(=O)c1c(C(=O)Nc2ccc(C(F)(C(F)(F)F)C(F)(F)F)cc2C)cccc1[N+](=O)[O-] [compound 1119],"Insecticidal effect, Test Example 1",[1],A (100)
same,"Insecticidal effect, Test Example 2",[2],A (100)
same,"Insecticidal effect, Test Example 3",[3],A (100)
Cc1cc(C(F)(F)C(F)(F)F)ccc1N(C)C(=O)c1cccc(I)c1C(=O)N(C)C [compound 1120],"Insecticidal effect, Test Example 1",[1],A (100)
same,"Insecticidal effect, Test Example 2",[2],A (100)
same,"Insecticidal effect, Test Example 3",[3],A (100)
Cc1cc(C(F)(F)C(F)(F)F)ccc1N(C)C(=O)c1cccc(I)c1C(=O)N(C)C(C)C [compound 1121],"Insecticidal effect, Test Example 1",[1],A (100)
same,"Insecticidal effect, Test Example 2",[2],A (100)
same,"Insecticidal effect, Test Example 3",[3],A (100)
CC(C)(C)NC(=O)c1c(I)cccc1C(=O)Nc1ccc(SC(F)(F)F)cc1 [compound 1127],"Insecticidal effect, Test Example 1",[1],A (100)
same,"Insecticidal effect, Test Example 2",[2],A (100)
same,"Insecticidal effect, Test Example 3",[3],A (100)
CCN(CC)C(=O)c1c(I)cccc1C(=O)Nc1ccc(SC(F)(F)F)cc1 [compound 1128],"Insecticidal effect, Test Example 1",[1],A (100)
same,"Insecticidal effect, Test Example 2",[2],A (100)
same,"Insecticidal effect, Test Example 3",[3],A (100)
CCN(CC)C(=O)c1c(I)cccc1C(=O)Nc1ccc2c(c1)OC(F)(F)O2 [compound 1129],"Insecticidal effect, Test Example 1",[1],A (100)
same,"Insecticidal effect, Test Example 2",[2],A (100)
same,"Insecticidal effect, Test Example 3",[3],A (100)
CCN(CC)C(=O)c1c(I)cccc1C(=O)Nc1ccc(C(O)(C(F)(F)F)C(F)(F)F)cc1 [compound 1130],"Insecticidal effect, Test Example 1",[1],A (100)
same,"Insecticidal effect, Test Example 2",[2],A (100)
same,"Insecticidal effect, Test Example 3",[3],A (100)
Cc1cc(C(F)(F)F)ccc1NC(=O)c1cccc(I)c1C(=O)NC(C)(C)C [compound 1141],"Insecticidal effect, Test Example 1",[1],A (100)
same,"Insecticidal effect, Test Example 2",[2],A (100)
same,"Insecticidal effect, Test Example 3",[3],A (100)
CC(C)NC(=O)c1c(I)cccc1C(=O)Nc1ccc2oc(C(F)(F)C(F)(F)F)nc2c1 [compound 1142],"Insecticidal effect, Test Example 1",[1],A (100)
same,"Insecticidal effect, Test Example 2",[2],A (100)
same,"Insecticidal effect, Test Example 3",[3],A (100)
CC(C)(C)NC(=O)c1c(I)cccc1C(=O)Nc1ccc2oc(C(F)(F)C(F)(F)F)nc2c1 [compound 1143],"Insecticidal effect, Test Example 1",[1],A (100)
same,"Insecticidal effect, Test Example 2",[2],C (89-80)
same,"Insecticidal effect, Test Example 3",[3],A (100)
CCN(CC)C(=O)c1c(I)cccc1C(=O)Nc1ccc(C(F)(F)F)cc1C [compound 1144],"Insecticidal effect, Test Example 1",[1],A (100)
same,"Insecticidal effect, Test Example 2",[2],A (100)
same,"Insecticidal effect, Test Example 3",[3],A (100)
CC(C)NC(=O)c1c(C(=O)Nc2ccc3c(c2)OC(F)C(F)(F)O3)cccc1[N+](=O)[O-] (stereo not drawn) [compound 1146],"Insecticidal effect, Test Example 1",[1],A (100)
same,"Insecticidal effect, Test Example 2",[2],C (89-80)
same,"Insecticidal effect, Test Example 3",[3],A (100)
CC(C)NC(=O)c1c(Cl)cccc1C(=O)Nc1ccc2c(c1)OC(F)C(F)(F)O2 (stereo not drawn) [compound 1147],"Insecticidal effect, Test Example 1",[1],A (100)
same,"Insecticidal effect, Test Example 2",[2],A (100)
same,"Insecticidal effect, Test Example 3",[3],A (100)
CC(C)NC(=O)c1c(I)cccc1C(=O)Nc1ccc2c(c1)OC(F)C(F)(F)O2 (stereo not drawn) [compound 1148],"Insecticidal effect, Test Example 1",[1],A (100)
same,"Insecticidal effect, Test Example 2",[2],A (100)
same,"Insecticidal effect, Test Example 3",[3],A (100)
CC(C)(C)NC(=O)c1c(I)cccc1C(=O)Nc1ccc2c(c1)OC(F)C(F)(F)O2 (stereo not drawn) [compound 1150],"Insecticidal effect, Test Example 1",[1],A (100)
same,"Insecticidal effect, Test Example 2",[2],A (100)
same,"Insecticidal effect, Test Example 3",[3],A (100)
CCN(CC)C(=O)c1c(I)cccc1C(=O)Nc1ccc2c(c1)OC(F)C(F)(F)O2 (stereo not drawn) [compound 1151],"Insecticidal effect, Test Example 1",[1],A (100)
same,"Insecticidal effect, Test Example 2",[2],A (100)
same,"Insecticidal effect, Test Example 3",[3],A (100)
CCC(C)(C)NC(=O)c1c(F)cccc1C(=O)Nc1ccc(C(F)(F)C(F)(F)F)cc1C [compound 1152],"Insecticidal effect, Test Example 1",[1],A (100)
same,"Insecticidal effect, Test Example 2",[2],A (100)
same,"Insecticidal effect, Test Example 3",[3],A (100)
CCC(C)(C)NC(=O)c1c(F)cccc1C(=O)Nc1ccc(C(F)(C(F)(F)F)C(F)(F)F)cc1C [compound 1153],"Insecticidal effect, Test Example 1",[1],A (100)
same,"Insecticidal effect, Test Example 2",[2],A (100)
same,"Insecticidal effect, Test Example 3",[3],A (100)
CCC(C)(C)NC(=O)c1c(F)cccc1C(=O)Nc1ccc(OC(F)(F)F)cc1C [compound 1154],"Insecticidal effect, Test Example 1",[1],A (100)
same,"Insecticidal effect, Test Example 2",[2],C (89-80)
same,"Insecticidal effect, Test Example 3",[3],A (100)
CCCN(CCC)C(=O)c1c(I)cccc1C(=O)Nc1ccc(OC(F)(F)F)cc1C [compound 1156],"Insecticidal effect, Test Example 1",[1],A (100)
same,"Insecticidal effect, Test Example 2",[2],A (100)
same,"Insecticidal effect, Test Example 3",[3],A (100)
CCCN(CCC)C(=O)c1c(I)cccc1C(=O)Nc1ccc(OC(F)(F)C(F)F)cc1C [compound 1158],"Insecticidal effect, Test Example 1",[1],A (100)
same,"Insecticidal effect, Test Example 2",[2],D (79-50)
same,"Insecticidal effect, Test Example 3",[3],A (100)
CCN(C(=O)c1c(I)cccc1C(=O)Nc1ccc(C(F)(F)C(F)(F)F)cc1C)C(C)C [compound 1159],"Insecticidal effect, Test Example 1",[1],A (100)
same,"Insecticidal effect, Test Example 2",[2],A (100)
same,"Insecticidal effect, Test Example 3",[3],A (100)
CCN(C(=O)c1c(I)cccc1C(=O)Nc1ccc(OC(F)(F)F)cc1)C(C)C [compound 1160],"Insecticidal effect, Test Example 1",[1],A (100)
same,"Insecticidal effect, Test Example 2",[2],A (100)
same,"Insecticidal effect, Test Example 3",[3],A (100)
